# From patent publication US8859535B2, “Hydroxy substituted isoquinolinone derivatives” (Novartis AG, priority 2011, dated 2014)
# Columns and labels:
# [1] = target: T1, human MDM4 protein (amino acids 2-185) (Homo sapiens, UniProt O15151); assay: p53-MDM4 TR-FRET assay (p53-MDM4 Assay 1); assay type: binding; details: 2.5 nM MDM4-biotinylated, 10 nM Cy5-p53 peptide; read-out: IC50 (μM) of p53-Hdm4 inhibition (TR-FRET) Assay 1
# T1 construct: human MDM4 protein (amino acids 2-185); made in house
# T1 sequence (O15151 2-185): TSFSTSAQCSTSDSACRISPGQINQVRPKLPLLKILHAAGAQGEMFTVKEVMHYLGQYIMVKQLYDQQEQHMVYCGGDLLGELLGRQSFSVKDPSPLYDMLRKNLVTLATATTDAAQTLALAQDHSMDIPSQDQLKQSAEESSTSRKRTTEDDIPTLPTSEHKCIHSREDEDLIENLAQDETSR
# Procedure, shortened: (§1)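 C-terminally biotinylated MDM2 (aa 2-188, 1.25 nM) or MDM4 (aa 2-185, 2.5 nM) with Eu-streptavidin (0.625 nM), 15 min preincubation, then 10 nM Cy5-p53 peptide (aa18-26), 15 min room temperature; TR-FRET 665/620 nm ratio, IC50 by curve fit. Modified MDM2 Assay 2 uses 0.1 nM MDM2 and 0.1 nM Eu-streptavidin.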
# [2] = target: T2, human MDM2 protein (amino acids 2-188) (Homo sapiens, UniProt Q00987); assay: p53-MDM2 TR-FRET assay (p53-MDM2 Assay 1); assay type: binding; details: 1.25 nM MDM2-biotinylated, 10 nM Cy5-p53 peptide; read-out: IC50 (μM) of p53-Hdm2 inhibition (TR-FRET) Assay 1
# T2 construct: human MDM2 protein (amino acids 2-188); made in house
# Procedure, shortened: as §1
# T2 sequence (Q00987 2-188): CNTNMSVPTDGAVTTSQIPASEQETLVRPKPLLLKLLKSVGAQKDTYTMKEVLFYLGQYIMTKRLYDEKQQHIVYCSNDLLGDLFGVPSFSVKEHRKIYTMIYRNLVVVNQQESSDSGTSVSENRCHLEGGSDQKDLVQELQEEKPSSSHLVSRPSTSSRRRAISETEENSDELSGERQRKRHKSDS
Structure (SMILES),IC50 [1] [µM],IC50 [2] [µM]
"COc1cc2c(cc1OC(C)C)[C@H](c1ccc(Cl)cc1)N(c1ccc(C(C)(O)C3CCN(C(=O)N(C)C)CC3)cc1)C(=O)C2 (stereo partly drawn) [Example 82, 4-(1-{4-[(S)-1-(4-Chloro-phenyl)-7-isopropoxy-6-methoxy-3-oxo-3,4-dihydro-1H-isoquinolin-2-yl]-phenyl}-1-hydroxy-ethyl)-piperidine-1-carboxylic acid dimethylamide]",2.9,0.0032
"COc1cc2c(cc1OC(C)C)[C@H](c1ccc(Cl)cc1)N(c1ccc(C(C)(O)C3CCN(C(=O)OC(C)C)CC3)cc1)C(=O)C2 (stereo partly drawn) [Example 83, 4-(1-{4-[(S)-1-(4-Chloro-phenyl)-7-isopropoxy-6-methoxy-3-oxo-3,4-dihydro-1H-isoquinolin-2-yl]-phenyl}-1-hydroxy-ethyl)-piperidine-1-carboxylic acid isopropyl ester]",7.54,0.0069
"COc1cc2c(cc1OC(C)C)[C@H](c1ccc(Cl)cc1)N(c1ccc(C(C)(O)C3CCN(C(=O)NC(C)C)CC3)cc1)C(=O)C2 (stereo partly drawn) [Example 84, 4-(1-{4-[(S)-1-(4-Chloro-phenyl)-7-isopropoxy-6-methoxy-3-oxo-3,4-dihydro-1H-isoquinolin-2-yl]-phenyl}-1-hydroxy-ethyl)-piperidine-1-carboxylic acid isopropylamide]",5.91,0.0056
"CCN1CCC(C(C)(O)c2ccc(N3C(=O)Cc4cc(OC)c(OC(C)C)cc4[C@@H]3c3ccc(Cl)cc3)cc2)CC1 (stereo partly drawn) [Example 85, (S)-1-(4-Chloro-phenyl)-2-{4-[1-(1-ethyl-piperidin-4-yl)-1-hydroxy-ethyl]-phenyl}-7-isopropoxy-6-methoxy-1,4-dihydro-2H-isoquinolin-3-one]",4.94,0.0048
COc1cc2c(cc1OC(C)C)[C@H](c1ccc(Cl)cc1)N(c1ccc(C(C)(O)C3CCN(CCC(F)(F)F)CC3)cc1)C(=O)C2 (stereo partly shown) [Example 86],6.45,0.0058
"COc1cc2c(cc1OC(C)C)[C@H](c1ccc(Cl)cc1)N(c1ccc(C(C)(O)C3CCN(C(=O)C(F)F)CC3)cc1)C(=O)C2 (stereo partly drawn) [Example 87, (S)-1-(4-Chloro-phenyl)-2-(4-{1-[1-(2,2-difluoro-acetyl)-piperidin-4-yl]-1-hydroxy-ethyl}-phenyl)-7-isopropoxy-6-methoxy-1,4-dihydro-2H-isoquinolin-3-one]",23.9,0.0287
"COc1cc2c(cc1OC(C)C)[C@H](c1ccc(Cl)cc1)N(c1ccc(C(C)(O)C3CCN(C(=O)CC#N)CC3)cc1)C(=O)C2 (stereo partly drawn) [Example 88, 3-[4-(1-{4-[(S)-1-(4-Chloro-phenyl)-7-isopropoxy-6-methoxy-3-oxo-3,4-dihydro-1H-isoquinolin-2-yl]-phenyl}-1-hydroxy-ethyl)-piperidin-1-yl]-3-oxo-propionitrile]",10.8,0.0114
"COc1cc2c(cc1OC(C)C)[C@H](c1ccc(Cl)cc1)N(c1ccc(C(C)(O)C3CCN(C=O)CC3)cc1)C(=O)C2 (stereo partly drawn) [Example 89, 4-(1-{4-[(S)-1-(4-Chloro-phenyl)-7-isopropoxy-6-methoxy-3-oxo-3,4-dihydro-1H-isoquinolin-2-yl]-phenyl}-1-hydroxy-ethyl)-piperidine-1-carbaldehyde]",2.39,0.0028
"COc1cc2c(cc1OC(C)C)[C@H](c1ccc(Cl)cc1)N(c1ccc(C(C)(O)C3CN(C4CCOCC4)C3)cc1)C(=O)C2 (stereo partly drawn) [Example 98, (S)-1-(4-Chloro-phenyl)-2-(4-{1-hydroxy-1-[1-(tetrahydro-pyran-4-yl)-azetidin-3-yl]-ethyl}-phenyl)-7-isopropoxy-6-methoxy-1,4-dihydro-2H-isoquinolin-3-one]",34.7,0.0342
"COc1cc2c(cc1OC(C)C)[C@H](c1ccc(Cl)cc1)N(c1ccc(C(C)(O)C3CN(C4CCCCC4)C3)cc1)C(=O)C2 (stereo partly drawn) [Example 99, (S)-1-(4-Chloro-phenyl)-2-{4-[1-(1-cyclohexyl-azetidin-3-yl)-1-hydroxy-ethyl]-phenyl}-7-isopropoxy-6-methoxy-1,4-dihydro-2H-isoquinolin-3-one]",24.6,0.0279
"CCN1CCC(N2CC(C(C)(O)c3ccc(N4C(=O)Cc5cc(OC)c(OC(C)C)cc5[C@@H]4c4ccc(Cl)cc4)cc3)C2)CC1 (stereo partly drawn) [Example 100, (S)-1-(4-Chloro-phenyl)-2-(4-{1-[1-(1-ethyl-piperidin-4-yl)-azetidin-3-yl]-1-hydroxy-ethyl}-phenyl)-7-isopropoxy-6-methoxy-1,4-dihydro-2H-isoquinolin-3-one]",9.66,0.0082
"COc1cc2c(cc1OC(C)C)[C@H](c1ccc(Cl)cc1)N(c1ccc(C(C)(O)C3CN(C4CCN(C)CC4)C3)cc1)C(=O)C2 (stereo partly drawn) [Example 101, (S)-1-(4-Chloro-phenyl)-2-(4-{1-hydroxy-1-[1-(1-methyl-piperidin-4-yl)-azetidin-3-yl]-ethyl}-phenyl)-7-isopropoxy-6-methoxy-1,4-dihydro-2H-isoquinolin-3-one]",9.21,0.0085
"COc1cc2c(cc1OC(C)C)[C@H](c1ccc(Cl)cc1)N(c1ccc(C(C)(O)C3CN(C(=O)CO)C3)cc1)C(=O)C2 (stereo partly drawn) [Example 102, (S)-1-(4-Chloro-phenyl)-2-(4-{1-hydroxy-1-[1-(2-hydroxy-acetyl)-azetidin-3-yl]-ethyl}-phenyl)-7-isopropoxy-6-methoxy-1,4-dihydro-2H-isoquinolin-3-one]",7.38,0.0078
"COc1cc2c(cc1OC(C)C)[C@H](c1ccc(Cl)cc1)N(c1ccc(C(C)(O)C3CC4CCC(C3)N4C(C)=O)cc1)C(=O)C2 (stereo partly drawn) [Example 104, (S)-2-{4-[1-(8-Acetyl-8-aza-bicyclo[3.2.1]oct-3-yl)-1-hydroxy-ethyl]-phenyl}-1-(4-chloro-phenyl)-7-isopropoxy-6-methoxy-1,4-dihydro-2H-isoquinolin-3-one]",14.2,0.0132
"COc1cc2c(cc1OC(C)C)[C@H](c1ccc(Cl)cc1)N(c1ccc(C(C)(O)C3CC4CCC(C3)N4C(C)C)cc1)C(=O)C2 (stereo partly drawn) [Example 110, (S)-1-(4-Chloro-phenyl)-2-{4-[1-hydroxy-1-(8-isopropyl-8-aza-bicyclo[3.2.1]oct-3-yl)-ethyl]-phenyl}-7-isopropoxy-6-methoxy-1,4-dihydro-2H-isoquinolin-3-one]",4.23,0.0049

# The next lines start with the values.
IC50 [1] [µM],IC50 [2] [µM],Structure (SMILES)
7.54,0.0062,"COc1cc2c(cc1OC(C)C)[C@H](c1ccc(Cl)cc1)N(c1ccc(C(C)(O)C34CCC(CC3)C4)cc1)C(=O)C2 (stereo partly drawn) [Example 138, (S)-2-[4-(1-Bicyclo[2.2.1]hept-1-yl-1-hydroxy-ethyl)-phenyl]-1-(4-chloro-phenyl)-7-isopropoxy-6-methoxy-1,4-dihydro-2H-isoquinolin-3-one]"
3,0.0083,"COCCOc1cc2c(cc1OC(C)C)[C@H](c1ccc(Cl)cc1)N(c1ccc(C(C)(O)C3CCOCC3)cc1)C(=O)C2 (stereo partly drawn) [Example 145, (S)-1-(4-Chloro-phenyl)-2-{4-[1-hydroxy-1-(tetrahydro-pyran-4-yl)-ethyl]-phenyl}-7-isopropoxy-6-(2-methoxy-ethoxy)-1,4-dihydro-2H-isoquinolin-3-one]"
1.19,0.005,"CC(C)Oc1cc2c(cc1OCc1ccccn1)CC(=O)N(c1ccc(C(C)(O)C3CCOCC3)cc1)[C@H]2c1ccc(Cl)cc1 (stereo partly drawn) [Example 146, (S)-1-(4-Chloro-phenyl)-2-{4-[1-hydroxy-1-(tetrahydro-pyran-4-yl)-ethyl]-phenyl}-7-isopropoxy-6-(pyridin-2-ylmethoxy)-1,4-dihydro-2H-isoquinolin-3-one]"
3.05,0.0086,"CC(C)Oc1cc2c(cc1OCC1COC1)CC(=O)N(c1ccc(C(C)(O)C3CCOCC3)cc1)[C@H]2c1ccc(Cl)cc1 (stereo partly drawn) [Example 147, (S)-1-(4-Chloro-phenyl)-2-{4-[1-hydroxy-1-(tetrahydro-pyran-4-yl)-ethyl]-phenyl}-7-isopropoxy-6-(oxetan-3-ylmethoxy)-1,4-dihydro-2H-isoquinolin-3-one]"
2.64,0.0067,"CNC(=O)COc1cc2c(cc1OC(C)C)[C@H](c1ccc(Cl)cc1)N(c1ccc(C(C)(O)C3CCOCC3)cc1)C(=O)C2 (stereo partly drawn) [Example 148, 2-((S)-1-(4-Chloro-phenyl)-2-{4-[1-hydroxy-1-(tetrahydro-pyran-4-yl)-ethyl]-phenyl}-7-isopropoxy-3-oxo-1,2,3,4-tetrahydro-isoquinolin-6-yloxy)-N-methyl-acetamide]"
5.53,0.0101,"CC(C)Oc1cc2c(cc1OCC(=O)N(C)C)CC(=O)N(c1ccc(C(C)(O)C3CCOCC3)cc1)[C@H]2c1ccc(Cl)cc1 (stereo partly drawn) [Example 149, 2-((S)-1-(4-Chloro-phenyl)-2-{4-[1-hydroxy-1-(tetrahydro-pyran-4-yl)-ethyl]-phenyl}-7-isopropoxy-3-oxo-1,2,3,4-tetrahydro-isoquinolin-6-yloxy)-N,N-dimethyl-acetamide]"
5.53,0.0065,COc1cc2c(cc1OC(C)C)[C@H](c1ccc(Cl)cc1)N(c1ccc(C(C)(O)C3CC(C)(C)OC(C)(C)C3)cc1)C(=O)C2 (stereo partly shown) [Example 162]
7.78,0.00735,"COc1cc2c(cc1OC(C)C)[C@H](c1ccc(Cl)cc1)N(c1ccc(C(C)(O)C3CCS(=O)(=O)CC3)cc1)C(=O)C2 (stereo partly drawn) [Example 166, (S)-1-(4-Chloro-phenyl)-2-{4-[1-(1,1-dioxo-hexahydro-1-thiopyran-4-yl)-1-hydroxy-ethyl]-phenyl}-7-isopropoxy-6-methoxy-1,4-dihydro-2H-isoquinolin-3-one]"
